From patent US20240000872A1, “NOVEL BACTERIOPHAGE THAT LYSES ACINETOBACTER GENUS BACTERIA HAVING RESISTANCE TO ANTIBIOTICS” (priority 2020, published 2024)

Test system: Acinetobacter baumannii strains
Test: Antibiotic susceptibility test (CLSI disk diffusion test method, read per CLSI 2016)
Format: cell-based
Description: (§1) Strain identification was performed using a kit such as AT 32 GN system (bioMérieux, Marcy l'Etoile, France). […] In Table 2 below, S, I, and R are the results obtained by evaluating susceptibility to the antibacterial agents, in which ‘S’ means susceptible, ‘I’ means intermediate, and ‘R’ means resistant.
as §1, with “as ATB” for “as AT”, “system (bioMédrieux,” for “system (bioMérieux,”, “Table 6” for “Table 2”
as §1, with “as ATB” for “as AT”, “Table 10” for “Table 2”, “susceptible, T” for “susceptible, ‘I’”

## CCN1CCN(C(=O)N[C@@H](C(=O)N[C@@H]2C(=O)N3[C@@H]2SC(C)(C)[C@@H]3C(=O)O)c2ccccc2)C(=O)C1=O [Piperacillin, piperacillin]
Host strain YMC14/01/C29
  antibiotic susceptibility class: R
Host strain YMC14/01/IP122
  antibiotic susceptibility class: R
Host strain YMC14/01/L8
  antibiotic susceptibility class: R
Host strain YMC14/01/P31
  antibiotic susceptibility class: R
Host strain YMC14/01/P117
  antibiotic susceptibility class: R
Host strain YMC14/01/P224
  antibiotic susceptibility class: R
Host strain YMC14/01/P727
  antibiotic susceptibility class: R
Host strain YMC14/01/P728
  antibiotic susceptibility class: R
Host strain YMC14/01/R130
  antibiotic susceptibility class: R
Host strain YMC14/01/R160
  antibiotic susceptibility class: R
Host strain YMC14/01/R198
  antibiotic susceptibility class: R
Host strain YMC14/01/R257
  antibiotic susceptibility class: R
Host strain YMC14/01/R270
  antibiotic susceptibility class: R
Host strain YMC14/01/R324
  antibiotic susceptibility class: R
Host strain YMC14/01/R443
  antibiotic susceptibility class: R
Host strain YMC14/01/R451
  antibiotic susceptibility class: R
Host strain YMC14/01/R560
  antibiotic susceptibility class: R
Host strain YMC14/01/R617
  antibiotic susceptibility class: R
Host strain YMC14/01/R671
  antibiotic susceptibility class: R
Host strain YMC14/01/R732
  antibiotic susceptibility class: R
Host strain YMC14/01/R767
  antibiotic susceptibility class: R
Host strain YMC14/01/R904
  antibiotic susceptibility class: R
Host strain YMC14/01/R905
  antibiotic susceptibility class: R
Host strain YMC14/01/R921
  antibiotic susceptibility class: R
Host strain YMC14/01/R941
  antibiotic susceptibility class: R
Host strain YMC14/01/R958
  antibiotic susceptibility class: R
Host strain YMC14/01/R1006
  antibiotic susceptibility class: R
Host strain YMC14/01/R1199
  antibiotic susceptibility class: R
Host strain YMC14/01/R1659
  antibiotic susceptibility class: R
Host strain YMC14/01/R1722
  antibiotic susceptibility class: R
Host strain YMC14/01/R1752
  antibiotic susceptibility class: R
Host strain YMC14/01/R2429
  antibiotic susceptibility class: R
Host strain YMC14/01/R2572
  antibiotic susceptibility class: R
Host strain YMC14/01/R2855
  antibiotic susceptibility class: R
Host strain YMC14/01/R2945
  antibiotic susceptibility class: R
Host strain YMC14/01/R3007
  antibiotic susceptibility class: R
Host strain YMC14/01/R3129
  antibiotic susceptibility class: R
Host strain YMC14/01/R3317
  antibiotic susceptibility class: R
Host strain YMC14/01/R3474
  antibiotic susceptibility class: R
Host strain YMC14/01/R3574
  antibiotic susceptibility class: R
Host strain YMC14/01/U313
  antibiotic susceptibility class: R
Host strain YMC14/01/U318
  antibiotic susceptibility class: R
Host strain YMC14/02/L18
  antibiotic susceptibility class: R
Host strain YMC14/02/P47
  antibiotic susceptibility class: R
Host strain YMC14/02/R1860
  antibiotic susceptibility class: R
Host strain YMC14/02/R2417
  antibiotic susceptibility class: R
Host strain YMC14/02/R2599
  antibiotic susceptibility class: R
Host strain YMC14/02/R2668
  antibiotic susceptibility class: R
Host strain YMC14/02/R2758
  antibiotic susceptibility class: R
Host strain YMC14/02/R2781
  antibiotic susceptibility class: R
Host strain YMC14/02/R3106
  antibiotic susceptibility class: R
Host strain YMC14/02/R3419
  antibiotic susceptibility class: R
Host strain YMC14/02/U1607
  antibiotic susceptibility class: R
Host strain YMC14/03/L9
  antibiotic susceptibility class: R
Host strain YMC14/03/P471
  antibiotic susceptibility class: R
Host strain YMC14/03/R122
  antibiotic susceptibility class: R
Host strain YMC14/03/R217
  antibiotic susceptibility class: R
Host strain YMC14/03/R380
  antibiotic susceptibility class: R
Host strain YMC14/03/R618
  antibiotic susceptibility class: R
Host strain YMC14/03/R2144
  antibiotic susceptibility class: R
Host strain YMC14/03/U4616
  antibiotic susceptibility class: R
Host strain YMC14/04/R1078
  antibiotic susceptibility class: R
Host strain YMC14/04/R1080
  antibiotic susceptibility class: R
Host strain YMC14/06/R2359
  susceptibility category (S/I/R): R
Host strain YMC14/08/R1169
  susceptibility category (S/I/R): R
Host strain YMC14/08/T90
  susceptibility category (S/I/R): R
Host strain YMC15/02/R436
  susceptibility category (S/I/R): R
Host strain YMC15/02/T28
  susceptibility category (S/I/R): R
Host strain YMC15/03/R1604
  susceptibility category (S/I/R): R
Host strain YMC15/09/R1869
  susceptibility category (S/I/R): R
Host strain YMC16/01/P11
  susceptibility category (S/I/R): R
Host strain YMC16/01/R123
  susceptibility category (S/I/R): R
Host strain YMC16/01/R198
  susceptibility category (S/I/R): R
Host strain YMC16/01/R353
  susceptibility category (S/I/R): R
Host strain YMC16/01/R380
  susceptibility category (S/I/R): R
Host strain YMC16/01/R397
  susceptibility category (S/I/R): R
Host strain YMC16/01/R405
  susceptibility category (S/I/R): R
Host strain YMC16/03/R4461
  susceptibility category (S/I/R): R
Host strain YMC16/05/R2210
  susceptibility category (S/I/R): R
Host strain YMC16/07/R2512
  susceptibility category (S/I/R): R
Host strain YMC16/09/R2471
  susceptibility category (S/I/R): R
Host strain YMC16/10/R2537
  susceptibility category (S/I/R): R
Host strain YMC16/12/B11422
  susceptibility category (S/I/R): R
Host strain YMC16/12/B11449
  susceptibility category (S/I/R): R
Host strain YMC16/12/B13325
  susceptibility category (S/I/R): R
Host strain YMC16/12/P503
  susceptibility category (S/I/R): R
Host strain YMC16/12/R4637
  susceptibility category (S/I/R): R
Host strain YMC17/01/B8053
  susceptibility category (S/I/R): R
Host strain YMC17/01/B10087
  susceptibility category (S/I/R): R
Host strain YMC17/01/B12075
  susceptibility category (S/I/R): R
Host strain YMC17/01/B13454
  susceptibility category (S/I/R): R
Host strain YMC17/01/P518
  susceptibility category (S/I/R): R
Host strain YMC17/01/R2812
  susceptibility category (S/I/R): R
Host strain YMC17/02/B14
  susceptibility category (S/I/R): R
Host strain YMC17/02/B87
  susceptibility category (S/I/R): R
Host strain YMC17/02/B721
  susceptibility category (S/I/R): R
Host strain YMC17/02/B4039
  susceptibility category (S/I/R): R
Host strain YMC17/02/B4520
  susceptibility category (S/I/R): R
Host strain YMC17/02/B4864
  susceptibility category (S/I/R): S
Host strain YMC17/02/B8414
  susceptibility category (S/I/R): R
Host strain YMC17/02/P523
  susceptibility category (S/I/R): R
Host strain YMC17/02/R541
  susceptibility category (S/I/R): R
Host strain YMC17/02/R2392
  susceptibility category (S/I/R): R
Host strain YMC17/03/B4730
  susceptibility category (S/I/R): R
Host strain YMC17/03/B5000
  susceptibility category (S/I/R): R
Host strain YMC17/03/P971
  susceptibility category (S/I/R): R
Host strain YMC17/03/R348
  susceptibility category (S/I/R): R
Host strain YMC17/03/R585
  susceptibility category (S/I/R): R
Host strain YMC17/03/R1888
  susceptibility category (S/I/R): R
Host strain YMC17/03/R3279
  susceptibility category (S/I/R): R
Host strain YMC17/03/R4077
  susceptibility category (S/I/R): R
Host strain YMC17/03/R4607
  susceptibility category (S/I/R): R
Host strain YMC17/04/R488
  susceptibility category (S/I/R): R
Host strain YMC17/04/R640
  susceptibility category (S/I/R): R
Host strain YMC/17/05/R1095
  susceptibility category (S/I/R): R
